Experimental findings from publication PMC12490239, “Combining BET inhibition with SMAC mimetics restricts tumor growth and triggers immune surveillance in preclinical cancer models” (Cell Reports Medicine, 2025) are described below.

What all share (assay): cells
Holding throughout (set-up): CellTiter-Glo 2.0 luminescence proliferation/viability assay, single agents, human tumour cell line panel
In general terms: Cellular ATP, detected with luciferase, serves as a proxy for viable cell number.

Assay [1] has as its system LIM2551. The note with it: 96 h; single agent; read-out: IC50 SMACm. As for the experimental part:
(§1) The effect of BETi, SMACm alone or in combination cell viability was determined using a 96-h CellTiter-Glo2.0 proliferation assay. Cells were seeded in assay plates and placed at 37°C with 5% CO2 for twenty-four hours before treatment. Compounds were added in triplicate in gradients of increasing concentrations, in case of SMACm ranging between 4.5 nM and 10 μM and in case of BETi between 1.4 nM and 3 μM. DMSO served as control. Cell viability was measured by luminescence analysis using luminescence read on Envision plate readers (PerkinElmer). An additional set of colorectal cancer cell lines was assayed with technical duplicates and experimental triplicates. Cell viability was measured by luminescence analysis using luminescence read on Tecan Plate reader. The effects of drug combinations were analyzed using the Bliss Independence Model.[34] Synergy score was calculated by the average of 3 highest and 3 lowest BLISS Gaps between predicted and measured POC (Percentage of Control) values. To investigate the synergistic interaction between BI 894999 (hereafter, BETi) and BI 891065 (hereafter, SMACm), we evaluated the in vitro anti-tumor effect of the single agents or the combination in a large panel of 151 cancer cell lines of different tissue origin: CRC, gastric cancer, non-small cell lung cancer (NSCLC), and pancreatic carcinoma (Figures 1C–1F). As a mono-agent, SMACm was able to inhibit cell proliferation only in a limited number of tested cell lines (4%, Table S2). Most of the cell lines responded to inhibition by BETi, with sensitivity ranging from 10 to 100 nM (Figure 1C). Bliss Gap analysis, performed to analyze the effect of the BETi+SMACm combination on tumor cell growth (Figures 1D–1F), unveiled potent synergistic activity across the cell models tested (Figure 1E), independent of tumor type (Figure 1F).  Figure 1 The combinatorial effect of BI 894999 and BI 891065 across a panel of human tumor cell lines (A) Selectivity and potency profiles of BI 891065. Top left, structure of BI 891065. Top right, IC50 values for BI 891065 inhibition of cIAP1, cIAP2, and XIAP. Bottom, physicochemical properties of […]. (B) WES (Simple Western System) analysis of cIAP1, cIAP2, and XIAP levels upon treatment of HT-29 cells with indicated concentrations of BI 891065 for 6 h (C) IC50 values determined in cell proliferation assays (n = 151) individually for BETi BI 894999 and SMACm BI 891065. Each point represents a cell line tested. (D) Example of proliferation assay for synergy analysis in LoVo cell line; shown is combination plate map matrix and the cell growth inhibition (CGI) at the indicated concentrations; CGI values < 100%: tumor cell growth, CGI 100%: tumor cell stasis, and CGI > 100%: tumor cell killing. (E) Synergy scores across the tested panel of cell lines obtained using Bliss synergy analysis. (F) Violin plots showing the synergy scores for BETi and SMACm combination across indications. N is the number of cell lines tested in each indication group.

Assay [2] concerns LS-123. The note with it: Homo sapiens, LS-123, 96 h; single agent; read-out: IC50 SMACm. As for the experimental part: as §1
In assay [3] the test system is SNU-216. The note with it: SNU-216, 96 h; single agent; read-out: IC50 SMACm. As to the method: as §1
Assay [4] has as its system HCA7. The note with it: HCA-7, 96 h; single agent; read-out: IC50 SMACm. As for the experimental part: as §1
Assay [5] concerns MDST8. The note with it: MDST8, 96 h; single agent; read-out: IC50 SMACm. As to the method: as §1
In assay [6] the test system is HARA. The note with it: 96 h; single agent; read-out: IC50 SMACm. As for the experimental part:
as §1

In assay [7] the test system is HCC1438. The note with it: 96 h; single agent; read-out: IC50 SMACm. As for the experimental part:
as §1

For assay [8], the system named is C125PM. The note with it: 96 h; single agent; read-out: IC50 SMACm. As to the method: as §1
Assay [9] concerns Calu-1. The note with it: Homo sapiens, Calu-1, 96 h; single agent; read-out: IC50 SMACm. As to the method: as §1
Assay [10] has as its system NCI-H2087. The note with it: Homo sapiens, NCI-H2087, 96 h; single agent; read-out: IC50 SMACm. As for the experimental part: as §1
The test system of assay [11] is HCC-15. The note with it: HCC15, 96 h; single agent; read-out: IC50 SMACm. As to the method: as §1
Assay [12] concerns HGC-27. The note with it: Homo sapiens, HGC-27, 96 h; single agent; read-out: IC50 SMACm. As for the experimental part:
as §1

Assay [13] has as its system NCI-H358. The note with it: Homo sapiens, NCI-H358, 96 h; single agent; read-out: IC50 SMACm. As for the experimental part:
as §1

Assay [14] concerns EBC-1. The note with it: Homo sapiens, EBC-1, 96 h; single agent; read-out: IC50 SMACm. As for the experimental part: as §1
Assay [15] relates to C70. The note with it: 96 h; single agent; read-out: IC50 SMACm. As for the experimental part:
as §1

The term IC50 denotes the concentration that inhibits the measured activity by half. For the compound `CN[C@@H](C)C(=O)Nc1ccc(-c2c(-c3cccnc3OC)nc3cc(C)ccn23)c(C#Cc2ccc3c(C)nccc3c2)n1` [SMACm, BI 891065], the IC50 in assay [1] stood at 2250 nM; in assay [2], 4.86 µM; in assay [3], 4.32 µM; in [4] it was 2830 nM; in assay [5] it was 4.78 µM; in assay [6] it was 3.97 µM. For the same compound, the IC50 in assay [7] worked out at 2290 nM; in assay [8], 1260 nM; in [9], 8.41 µM; in assay [10], 5.05 µM; in assay [11], 4.6 µM; in assay [12], 2890 nM. Also, the figures for the IC50 in assay [13], in assay [14] and in [15] were greater than 10 µM, 2230 nM and 3.31 µM, respectively.
